Paper PMC8620715, “Biological Activity of Triazolopyrimidine Copper(II) Complexes Modulated by an Auxiliary N-N-Chelating Heterocycle Ligands” (Molecules, 2021)
Values after ≈ are worked out from the molar mass of the structure shown. Like-named read-outs stand apart in the source and are kept apart here.

Key:
[1] = tested on: S. aureus 25923; conditions: S. aureus 25923, biofilm; cited from earlier work
[2] = tested on: B16 murine melanoma cell line; conditions: cited from earlier work; for TI: 48 h; for IC50: B16, 48 h
[3] = tested on: S. aureus 25923; conditions: cited from earlier work
[4] = tested on: E. coli 25922; conditions: cited from earlier work
[5] = tested on: MRSA 388; conditions: cited from earlier work
[6] = tested on: MRSA 388; conditions: MRSA 388, biofilm; cited from earlier work
[7] = tested on: E. coli 25922; conditions: E. coli 25922, biofilm; cited from earlier work
[8] = tested on: P. aeruginosa 27853; conditions: cited from earlier work
[9] = tested on: P. aeruginosa 27853; conditions: P. aeruginosa 27853, biofilm; cited from earlier work
[10] = tested on: S. aureus 25923; assay: MIC by broth microdilution; format: cell-based, Staphylococcus aureus; conditions: Staphylococcus aureus; S. aureus 25923, planktonic; read-out: MIC
Protocol: (§1) The antibacterial assays were carried out using two Gram-negative (Escherichia coli ATCC 25922, Pseudomonas aeruginosa ATCC 27853) and two Gram-positive (Staphylococcus aureus ATCC 25923, MRSA (meticillin-Resistant S. aureus) 388 (ATCC, American Type Culture Collection) bacteria.
(§2) The antimicrobial activity of the two complexes (1) and (2) was assessed using their minimum inhibitory concentration (MIC) by the broth microdilution method, as previously described by the Clinical and Laboratory Standard Institute (CLSI; M07-A9 document). A broth microdilution assay was performed in sterile 96-well plates using Muller-Hinton broth (Scharlau; MHB). The compounds solubilized in […] (1,000 μg/mL) were serially diluted in 90 μL MHB, in concentrations ranging between 500 and 0.97 μg/mL. Overnight cultures were used to prepare suspension in phosphate-buffered saline (pH 7.0) to match a 0.5 McFarland density. The bacterial suspensions were further diluted to 1:100 by adding 0.1 mL of bacterial suspension to 9.9 mL of MHB. A volume of 10 μL of this dilution was added to each well of columns 1–10, containing different concentrations of the tested compounds. […] Additionally, 10 μL of the diluted bacterial suspension was added in column 11 (the growth control). A volume of 100 μL MHB was added to the microtiter plates’ sterility control wells (column 12). After inoculation, the plates were incubated at 35 ± 2 °C for 18 h. Growth was measured as light absorbance (620 nm) in comparison to an uninoculated well (negative control). It was detected using a microtiter plate reader (Apollo LB 911ELISA (Berthold Technologies GmbH & Co. KG, Waltham, MA, USA)). The MIC of each compound was defined as the lowest concentration required to inhibit bacterial growth.

[11] = tested on: MRSA 388; assay: MIC by broth microdilution; format: cell-based, Staphylococcus aureus; conditions: Staphylococcus aureus; MRSA 388, planktonic; read-out: MIC
Protocol: as §1, §2

[12] = tested on: BJ cells; assay: Lactate dehydrogenase (LDH) release assay, BJ cells; format: cell-based, human; conditions: 24 h and 48 h
Protocol: (§3) Membrane integrity after peptide treatment was assessed based on LDH release using a CytoTox 96 Non-Radioactive Cytotoxicity Assay (Promega), as previously described. […] Maximal LDH release was obtained by complete cell lysis induced by using 1% of Triton X-100. The absorption resulting from LDH activity was measured in a microplate reader Mithras 940 (Berthold) at 490 nm, and the % LDH was calculated as: [(corrected absorbance of the LDH released in treated cells)/(corrected absorbance of the total LDH released)] * 100%.

[13] = tested on: E. coli 25922; assay: MIC by broth microdilution; format: cell-based, Escherichia coli; conditions: Escherichia coli; E. coli 25922, planktonic; read-out: MIC
Protocol: as §1, §2

[14] = tested on: BJ cells; assay: Cell morphology by fluorescence microscopy (phalloidin staining), BJ cells; format: cell-based, human; conditions: 2.5 and 10 µg/mL, 24 h
Protocol: (§4) The morphological changes induced by the treatment of the BJ and B16 cell lines with the tested compounds at two different concentrations (2.5 and 10 µg/mL) applied for 24 h were investigated by fluorescence microscopy.
(§5) According to the manufacturer protocol, the cytoskeleton actin filaments of BJ and B16 cells were stained with phalloidin-FITC (Sigma-Aldrich, St. Louis, MO, USA). Briefly, cells were washed with PBS (5 min, 3 times), fixed for 5 min with 3% paraformaldehyde, washed three times with PBS, permeabilized with 0.1% Triton X-100 in PBS for 15 min, washed three times with PBS, stained with 20 μg/mL phalloidin-FITC at room temperature for 1 h and rewashed three times with PBS. The cell nucleus was stained with 8 μM of Hoechst 33342 solution for 10 min, washed three times with PBS, and finally, mounted and sealed on glass slides with FluorSave™ Reagent (Merck Millipore, Germany). The fluorescence images were acquired using an Andor DSD2 Confocal Unit (Andor, Ireland), mounted on an epifluorescence microscope, Olympus BX-51 (Olympus, Germany), equipped with a 40x and 100x objective and an appropriate DAPI/Hoechst filter cube (excitation filter 390/40 […], dichroic mirror 405 nm and emission filter 452/45 nm) and GFP/FITC filter cube (excitation filter 466/40 nm, dichroic mirror 488 nm and emission filter 525/54 nm).

[15] = tested on: B16 cells; assay: Lactate dehydrogenase (LDH) release assay, B16 cells; format: cell-based, mouse; conditions: B16, 24 h and 48 h
Protocol: as §3

[16] = tested on: BJ normal cell line (human fibroblast cells); assay: MTT cell viability assay, BJ normal cells; format: cell-based; conditions: range of tested concentrations, 24 h and 48 h
Protocol: (§6) Human fibroblast cells (BJ—ATCC CRL-2522, USA) were grown in minimal essential medium (MEM) supplemented with 2 mM L-Glutamine, 10% fetal calf serum (FCS), 100 units/mL of penicillin, and 100 µg/mL of streptomycin at 37 °C in a humidified incubator under an atmosphere containing 5% CO2. Mouse melanoma cells (B16—ATCC CRL—6475, USA) were grown in DMEM (Dulbecco’s Modified Eagle Medium) supplemented with similar reagents as MEM. All cell cultivation media and reagents were purchased from Biochrom AG (Berlin, Germany) and Sigma-Aldrich (Darmstadt, Germany).
(§7) Cell viability was evaluated using 3-(4,5-dimethylthiazol-2-yl)-2,5-diphenyltetrazolium bromide (MTT) assay as described previously. First, the cells were seeded in 96-well plates (20000 cells/well) and cultured for 24 h in medium. […] The negative control was represented by cells cultivated in a medium without the investigated compounds. Following incubation, the medium was changed, and the MTT solution was added to each well to a final concentration of 1 mg/mL and incubated for an additional 4 h, at 37 °C. Finally, the medium was collected, and DMSO was used to dissolve the insoluble formazan product. The absorbance of the samples was recorded at 570 nm using a plate reader Mithras 940 (Berthold). The data were corrected for the background, and the percentage of viable cells was obtained using the equation:Cell viability = [(A570 of treated cells)/(A570 of untreated cells)] × 100%(1)
(§8) The half-maximal inhibitory concentration (IC50) was determined by fitting the data with a sigmoidal logistical equation using the software Origin 8.1 (Microcal Inc., Los Angeles, CA, USA).

[17] = tested on: P. aeruginosa 27853; assay: Biofilm formation on polystyrene (crystal violet), MBEC; format: cell-based, Pseudomonas aeruginosa; conditions: P. aeruginosa 27853, biofilm
Protocol: as §1
(§9) The method for assessment of biofilm formation on polystyrene microtiter plates was based on previously published protocols. The absorbance at 490 nm was measured with an Apollo LB 911ELISA (Berthold Technologies GmbH & Co. KG, Waltham, MA, USA) reader. The minimal biofilm-eradication concentration (MBEC) was defined as the lowest concentration of antibiotics required to eradicate the biofilm. All experiments were performed in triplicate.

[18] = tested on: P. aeruginosa 27853; assay: MIC by broth microdilution; format: cell-based, Pseudomonas aeruginosa; conditions: Pseudomonas aeruginosa; P. aeruginosa 27853, planktonic; read-out: MIC
Protocol: as §1, §2

[19] = tested on: B16 murine melanoma cell line; assay: MTT cell viability assay, B16 melanoma cells; format: cell-based, mouse; conditions: 24 h and 48 h
Protocol: as §6, §7, §8

[20] = tested on: S. aureus 25923; assay: Biofilm formation on polystyrene (crystal violet), MBEC; format: cell-based, Staphylococcus aureus; conditions: S. aureus 25923, biofilm
Protocol: as §1, §9

[21] = tested on: MRSA 388; assay: as above; format: cell-based, Staphylococcus aureus; conditions: MRSA 388, biofilm
Protocol: as §1, §9

[22] = tested on: B16 cells; assay: Cell morphology by fluorescence microscopy (phalloidin staining), B16 cells; format: cell-based, mouse; conditions: 2.5 µg/mL (2.84 μM and 2.76 μM for the complexes), 24 h
Protocol: as §4, §5

[23] = tested on: E. coli 25922; assay: Biofilm formation on polystyrene (crystal violet), MBEC; format: cell-based, Escherichia coli; conditions: E. coli 25922, biofilm
Protocol: as §1, §9

**Q.** What does the source list for {[Cu(bpy)2(μ2OClO3)]ClO4}n [CubP]?
**A.** MBEC [1]: 0.14 mM; TI [2]: 5.53; IC50 [2]: 16 µM; MIC [3]: 270 µM; MIC [4]: 540 µM; MIC [5]: 270 µM; MBEC [6]: 0.27 mM; MBEC [7]: 0.54 mM; MIC [8]: 1090 µM; MBEC [9]: 1.09 mM

**Q.** For `O.[Cu+2].[O-][Cl+3]([O-])([O-])[O-].[O-][Cl+3]([O-])([O-])[O-].c1cnc2c(c1)ccc1cccnc12.c1cnc2c(c1)ccc1cccnc12` [CupP, [Cu(phen)2(OH2)](ClO4)2], which MBEC [1] is on record?
**A.** 0.03 mM

**Q.** What about the TI [2] of the same molecule?
**A.** 0.80

**Q.** What about the IC50 [2] of the same molecule?
**A.** 3.7 µM

**Q.** And the MIC [3]?
**A.** 30 µM

**Q.** What about the MIC [4] of the same molecule?
**A.** 30 µM

**Q.** What about the MIC [5] of the same molecule?
**A.** 120 µM

**Q.** What about the MBEC [6] of the same molecule?
**A.** 0.10 mM

**Q.** What about the MBEC [7] of the same molecule?
**A.** 0.10 mM

**Q.** And the MIC [8]?
**A.** 500 µM

**Q.** And the MBEC [9]?
**A.** 0.50 mM

**Q.** Which MIC [10] does the source give for `Cc1cc(C)n2ncnc2n1` [dmtp, 5,7-dimethyl-1,2,4-triazolo[1,5-a]pyrimidine, reference compound] here?
**A.** 8450 µM (≈ 1250 µg/mL)

**Q.** What about the MIC [11] of the same molecule?
**A.** 16900 µM (≈ 2500 µg/mL)

**Q.** What about the “membrane integrity (LDH release)” value [12] of the same molecule?
**A.** did not affect the membrane integrity

**Q.** What about the MIC [13] of the same molecule?
**A.** 8450 µM (≈ 1250 µg/mL)

**Q.** What about the “morphological changes of BJ cells” value [14] of the same molecule?
**A.** did not alter their morphology

**Q.** What about the “membrane integrity (LDH release)” value [15] of the same molecule?
**A.** did not affect the membrane integrity

**Q.** What about the “effect on viability of BJ cells” value [16] of the same molecule?
**A.** did not affect the viability

**Q.** And the MBEC [17]?
**A.** 8.45 mM

**Q.** What about the MIC [18] of the same molecule?
**A.** 8450 µM (≈ 1250 µg/mL)

**Q.** And the “effect on viability of B16 cells” value [19]?
**A.** did not affect the viability

**Q.** What about the MBEC [20] of the same molecule?
**A.** 8.45 mM

**Q.** And the MBEC [21]?
**A.** 16.90 mM

**Q.** What about the “morphological changes of B16 cells” value [22] of the same molecule?
**A.** not altered

**Q.** What about the MBEC [23] of the same molecule?
**A.** 8.45 mM

**Q.** Which results are given for `Cc1cc(-c2ccccc2)nc2ncnn12.[Cu+2].[O-][Cl+3]([O-])([O-])[O-].[O-][Cl+3]([O-])([O-])[O-].c1cnc2c(c1)ccc1cccnc12.c1cnc2c(c1)ccc1cccnc12` [CupPP, [Cu(phen)2(pmtp)](ClO4)2]?
**A.** MBEC [1]: 0.01 mM; TI [2]: 0.88; IC50 [2]: 4 µM; MIC [3]: 10 µM; MIC [4]: 20 µM; MIC [5]: 50 µM; MBEC [6]: 0.05 mM; MBEC [7]: 0.02 mM; MIC [8]: 90 µM; MBEC [9]: 0.09 mM

**Q.** Which results are given for `Cc1cc(-c2ccccc2)nc2ncnn12.[Cu+2].[O-][Cl+3]([O-])([O-])[O-].[O-][Cl+3]([O-])([O-])[O-].c1ccc(-c2ccccn2)nc1.c1ccc(-c2ccccn2)nc1` [CubPP, [Cu(bpy)2(pmtp)](ClO4)2]?
**A.** MBEC [1]: 0.80 mM; TI [2]: 3.23; IC50 [2]: 20 µM; MIC [3]: 400 µM; MIC [4]: 200 µM; MIC [5]: 400 µM; MBEC [6]: 0.40 mM; MBEC [7]: 0.40 mM; MIC [8]: 400 µM; MBEC [9]: 0.40 mM
